This note sets out measurements from patent US8642593B2, “2,4-pyrimidinediamine compounds and prodrugs and their uses” (Rigel Pharmaceuticals, Inc., priority 2009, dated 2014).

Experiment [1] concerns mast cell activation induced by FcγR cross-linking (CHMC cells). The experiment can be described thus: LD Tryptase CHMC: tryptase release assay. It counts as cell-based, Human. The note with it: for IC50: Mast cell; for potency compared with the control, whole cell assay: vs control compound. On the procedure: Compounds are assayed for inhibition of mast cell activation induced by FcγR cross-linking by measuring the activity of tryptase released upon degranulation as follows:
Human mast cells are cultured and differentiated from CD38-negative progenitor cell as described in U.S. Patent Publication No. 2005/0234049, which is hereby incorporated herein by reference in its entirety. For example, 65 μL of various concentrations of the test compound are prepared in MT (137 mM NaCl, 2.7 mM KCl, 1.8 mM CaCl2, 1.0 mM MgCl2, 5.6 mM Glucose, 20 mM Hepes (pH 7.4), 0.1% Bovine Serum Albumin, (Sigma, #A4503)) containing 2% MeOH and 1% DMSO, or control buffer are added to duplicate 96-well V-bottom plates. Pelleted and re-suspended (in warm MT) CHMC cells (65 μL) are added to each 96-well plate, mixed and incubated for 1 hour at 37° C. […] MT (25 μL) is added to control wells. After a 60-minute incubation at 37° C., cells and cell debris were pelleted by centrifugation at 1000 rpm for 10 min and tryptase and leukotriene C4 levels are measured.
To measure tryptase levels, 25 μL of supernatant from each well is transferred to a fresh 96-well black bottom plate, to which 100 μL of fresh tryptase substrate solution [(Z-Ala-Lys-Arg-AMC2TFA; Enzyme Systems Products, #AMC-246)]1:2000 in tryptase assay buffer [0.1M Hepes (pH 7.5), 10% w/v Glycerol, 10 μM Heparin (Sigma H-4898) 0.01% NaN3] is added. After 30 minutes incubation at room temperature, the optical density of the plates is measured at 355 nm/460 nm on a spectrophotometric plate reader.
Compounds of the disclosure were assayed for their ability to inhibit mast cell activation induced by FcγR cross-linking by measuring the activity of tryptase released upon degranulation.

Another experiment has as its target T1, Syk kinase (Homo sapiens, UniProt P43405).
T1 construct: purchased Millipore #14-314
Description: Fluorescence Polarization Syk kinase assay. Format: biochemical. The note with it: for IC50: Table 2, unit inferred, read-out: FP-based Biochem Syk; for potency compared with the control, biochemical assay: vs control compound. As to the method: Compounds are tested for the ability to inhibit Syk kinase catalyzed phosphorylation of a peptide substrate in a biochemical fluorescence polarization assay with isolated Syk kinase.
Test compound stock solutions (10 mM) containing are serially diluted in DMSO starting from 2.5 mM and then further diluted to desired concentration of 50 μM (5×) to yield 2% DMSO concentration in kinase buffer (20 mM HEPES, pH 7.4, 5 mM MgCl2, 2 mM MnCl2, 1 mM DTT, 0.1 mg/mL acetylated Bovine Gamma Globulin). The assay is carried out in a black 96 well low volume plate (Molecular Devices, #42-000-0117) by transferring compound in 2% DMSO (0.4% DMSO final) pre-mixed with ATP/substrate (TK2 peptide) in kinase buffer at room temperature. Syk kinase (Millipore, #14-314) is added to a final reaction volume of 20 μL, and the reaction is incubated for 30 minutes at room temperature. […] The reaction is stopped by addition of 20 μL of PTK quench mix containing EDTA (10 mM final)/anti-phosphotyrosine antibody (1× final)/fluorescent phosphopeptide tracer (0.5× final) diluted in FP dilution buffer to stop the reaction to a total volume of 40 μL according to the manufacturer's instructions (Invitrogen). The plate is incubated in the dark for additional 30 minutes at room temperature and then read on a Polarion fluorescence polarization plate reader (Tecan). Data are converted to amount of phosphopeptide present using a calibration curve generated by competition with the phosphopeptide competitor provided in the Tyrosine Kinase Assay Kit, Green (Invitrogen, #P2837).
(Fluorescence polarisation rises when a labelled molecule tumbles more slowly, as on binding a larger partner.)

For experiment [2], the system named is allergen induced basophil degranulation. The experiment can be described thus: CD63 Assay (BASOTEST, FACS, whole blood, anti-IgE). Format: cell-based. The note with it: for potency compared with the control in the presence of whole blood (CD63 assay): vs control compound; for IC50: whole blood, anti-IgE, Table 2, unit inferred. As to the method: Compounds are tested for the ability to inhibit allergen induced basophil degranulation. The BASOTEST® kit (Orpegen Pharma GmbH, #10-0500) is used in this assay. In a 5 mL FACS tube 105 μL of Heparinized whole blood, 25 μL of test compound solution (in DMSO) are incubated at room temperature for 30-60 minutes. To induce degranulation, 20 μL stimulation buffer (Reagent B) is added, and the tube is incubated for 10 min in a 37° C. water bath. Then, 100 μL of anti-IgE (2 μg/mL) is added, or 100 µL of washing solution (reagent A) is added (i.e., as a negative control). The tube is incubated for 20 min in a 37° C. water bath. Degranulation is then stopped by incubation on ice for 5 min. 20 μL of staining reagent (reagent F) is added, and the tube is incubated on ice in the dark for 20 min. 2 mL of room temperature lysing solution is added, and the tube is incubated at room temperature for 10 min. The tubes are spun down at 4° C. for 5 min at 1600 rpm, and the supernatant is discarded. 3 mL washing solution (reagent A) is added, and the tubes spun down at 4° C. for 5 min at 1600 rpm, and the supernatant is discarded. 200 μL washing solution is added to the remaining cell pellet, and the samples are incubated on ice in the dark until analysis (within 2 h). Analysis is performed using flow cytometry at 488 nm using the conditions specified in the BASOTEST® kit instructions to determine percentage of activated basophilic granulocytes.

The target in another experiment is T2, KDR/VEGFR2 enzyme (Homo sapiens, UniProt P35968).
T2 construct: purchased Millipore #14-630
T2 sequence (P35968 790-1356 limits assumed): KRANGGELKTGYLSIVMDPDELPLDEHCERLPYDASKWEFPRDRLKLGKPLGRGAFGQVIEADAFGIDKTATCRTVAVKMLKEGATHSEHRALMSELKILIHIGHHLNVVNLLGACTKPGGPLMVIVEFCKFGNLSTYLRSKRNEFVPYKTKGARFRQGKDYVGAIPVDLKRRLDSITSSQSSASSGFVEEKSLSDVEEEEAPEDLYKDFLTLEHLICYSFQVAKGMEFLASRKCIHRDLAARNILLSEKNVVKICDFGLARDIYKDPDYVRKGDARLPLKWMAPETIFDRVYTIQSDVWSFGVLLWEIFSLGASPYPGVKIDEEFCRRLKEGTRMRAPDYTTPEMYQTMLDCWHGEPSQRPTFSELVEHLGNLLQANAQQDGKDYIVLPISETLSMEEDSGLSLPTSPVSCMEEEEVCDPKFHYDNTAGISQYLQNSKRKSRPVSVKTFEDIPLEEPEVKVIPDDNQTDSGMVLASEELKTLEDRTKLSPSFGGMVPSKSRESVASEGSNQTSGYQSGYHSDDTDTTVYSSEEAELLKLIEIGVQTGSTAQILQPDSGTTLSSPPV
Description: Biochemical VEGFR Assay (ELISA). To be noted: Table 2, unit inferred; read-out: Biochem VEGFR2. On the procedure: Compounds are tested for the ability to inhibit VEGF2 in an ELISA assay. […] Plates are then washed with 1×PBST using a plate washer, then blocked with 2% BSA in 1×PBST (100 μL/well) for 1 hr at room temperature. The NeutrAvidin-coated plates are again washed with 1×PBST using a plate washer.
The mixed test compound/reaction solutions are added to the wells of the NeutrAvidin-coated plates (50 μL/well). 6× enzyme solution (1000 parts kinase buffer, 0.6 parts KDR/VEGFR2 enzyme (50 μg/mL, Millipore, #14-630) is added to all wells except those designated as negative controls. The plates are incubated for 30 minutes on a shaker at room temperature.
The detection reagent is added at 100 μL/well, and the plates are incubated for 60 minutes at room temperature, then washed with 1×PBST using a plate washer.
(In general: An ELISA detects its analyte on a solid surface through an enzyme-linked reagent.)

Experiment [3] deals with T3, Ret kinase in SK-N-SH brain neuroblastoma cells (Homo sapiens, UniProt P07949).
T3 construct: Ret is immunoprecipitated from the detergent-soluble cell lysate; host or cells: SK-N-SH brain neuroblastoma cells
T3 sequence (P07949 29-1114): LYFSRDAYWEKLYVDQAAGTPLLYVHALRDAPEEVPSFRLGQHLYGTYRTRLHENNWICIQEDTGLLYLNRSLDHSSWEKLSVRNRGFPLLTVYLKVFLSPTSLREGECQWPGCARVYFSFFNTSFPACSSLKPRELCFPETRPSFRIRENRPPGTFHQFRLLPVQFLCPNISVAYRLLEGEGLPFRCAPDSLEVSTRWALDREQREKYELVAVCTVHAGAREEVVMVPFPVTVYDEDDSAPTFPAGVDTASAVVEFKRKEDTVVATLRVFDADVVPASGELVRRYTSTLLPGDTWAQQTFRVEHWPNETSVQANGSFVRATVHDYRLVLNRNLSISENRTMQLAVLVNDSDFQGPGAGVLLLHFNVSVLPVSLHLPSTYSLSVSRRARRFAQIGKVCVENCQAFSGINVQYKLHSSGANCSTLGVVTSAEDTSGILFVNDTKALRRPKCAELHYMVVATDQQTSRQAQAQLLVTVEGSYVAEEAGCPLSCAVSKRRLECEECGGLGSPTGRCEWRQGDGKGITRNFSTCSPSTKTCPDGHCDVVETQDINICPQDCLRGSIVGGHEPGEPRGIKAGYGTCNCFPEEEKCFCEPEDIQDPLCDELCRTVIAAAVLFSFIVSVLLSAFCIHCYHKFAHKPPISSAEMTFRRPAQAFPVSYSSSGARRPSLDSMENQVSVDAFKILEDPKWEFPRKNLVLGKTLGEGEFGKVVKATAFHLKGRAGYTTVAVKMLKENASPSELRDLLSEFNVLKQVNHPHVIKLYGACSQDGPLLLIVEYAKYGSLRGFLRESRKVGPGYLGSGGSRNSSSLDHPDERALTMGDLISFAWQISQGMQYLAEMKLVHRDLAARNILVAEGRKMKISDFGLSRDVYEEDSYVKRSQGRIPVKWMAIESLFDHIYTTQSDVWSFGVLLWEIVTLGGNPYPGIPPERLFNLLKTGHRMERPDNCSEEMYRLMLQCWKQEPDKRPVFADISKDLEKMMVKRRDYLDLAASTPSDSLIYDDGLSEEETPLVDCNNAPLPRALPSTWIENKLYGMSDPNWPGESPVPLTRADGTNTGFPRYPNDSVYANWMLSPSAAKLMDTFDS
Description: Cellular Ret Assay. To be noted: GDNF, Table 2, unit inferred. Format: cell-based.
Description: Compounds are tested for the ability to inhibit Ret kinase in cells. SK-N-SH brain neuroblastoma cells (ATCC, #HTB-1, maintained and plated in DMEM (Cellgro Mediatech, #10-013-CV) with 10% fetal bovine serum (JRH, #12106-500M) are seeded in 10 cm plates in 10 mL of culture media and allowed to reach 85% confluence by the next day. The medium is replaced with 5 mL of DMEM (without fetal bovine serum) containing DMSO or test compound (final 0.1% DMSO), and incubated at 37° C./5% CO2 for 1 hour. SK-N-SH cells are then stimulated with 50 ng/mL of human recombinant GDNF (Peprotech, #450-10) for 10 minutes. Cells are washed once with cold 1×PBS and lysed with 500 μL of 1% NP-40 lysis buffer (Tris HCl pH 7.4 with 150 mM NaCl, 1 mM NaVn, 1% Nonidet-P40 (Fisher Scientific, #PI-28324), protease inhibitor tablet (Roche, 1697498)). […]
After washing with 1×TBST for 2 hours with five buffer changes, the membrane is probed with Goat anti-Mouse IgG HRP antibody (Jackson Immunoresearch Labs, #115-035-146, 1:2000) in 1×TBST+5% milk for 1 hour at room temperature. The membrane is washed with TBST for 2 hours with five buffer changes, treated with ECL plus Western Blot detection reagent (GE Healthcare, formerly Amersham, #RPN2132) according to the instruction manual, and the chemiluminescent signal is detected on Kodak Biomax MR Film (VWR, # IB8701302).

The mark [4] stands for this setting: Homo sapiens, Table 2, unit inferred, read-out: LD Tryptase CHMC.
Where [5] appears, read: Homo sapiens, read-out: IC50 value (tryptase assay).
[6] abbreviates: human mast cells, anti-IgG stimulation, read-out: IC50 (LD Tryptase CHMC).

Like-named read-outs stand apart in the source and are kept apart here.

As for `CC1(C)Oc2ccc(Nc3nc(Nc4ccc(N5CCOCC5)nc4)ncc3F)nc2NC1=O` [Compound 1, N4-(2,2-Dimethyl-3-oxo-4H-5-pyrido[1,4]oxazin-6-yl)-5-fluoro-N2-[6-morpholinopyridin-3-yl]-2,4-pyrimidinediamine], the IC50 in experiment [1] (setting [4]) is 90 nM; in experiment [1] (setting [5]), less than 100 nM; in experiment [1] (setting [6]) it was 90 nM; on Syk kinase it was 40 nM; in experiment [2], 250 nM; at KDR/VEGFR2 enzyme it was 770 nM. In experiment [3], the IC50 was greater than 5000 nM. Further, the “potency compared with the control, whole cell assay” value in experiment [1] is “somewhat less potent than the control”. Further, the “potency compared with the control, biochemical assay” value at Syk kinase is “somewhat less potent than the control”. For the same compound, the “potency compared with the control in the presence of whole blood (CD63 assay)” value in experiment [2] is “more potent”.
As for `CC1(C)Oc2ccc(Nc3nc(Nc4ccc(N5CCOCC5)cc4)ncc3F)nc2NC1=O` [Compound 3, N4-(2,2-Dimethyl-3-oxo-4H-5-pyrido[1,4]oxazin-6-yl)-5-fluoro-N2-(4-morpholinophenyl)-2,4-pyrimidinediamine], the IC50 in experiment [1] (setting [4]) is 80 nM; in experiment [1] (setting [5]), less than 100 nM; in experiment [1] (setting [6]), 80 nM; at Syk kinase, 80 nM; in experiment [2], 300 nM; at KDR/VEGFR2 enzyme it was 340 nM. The compound further returned an IC50 in experiment [3] greater than 1000 nM. Further, the “potency compared with the control, whole cell assay” value in experiment [1] is “somewhat less potent than the control”. The “potency compared with the control, biochemical assay” value at Syk kinase is “somewhat less potent than the control”. In addition, the “potency compared with the control in the presence of whole blood (CD63 assay)” value in experiment [2] was “more potent”.
